Laboratory results from paper PMC8037336, “Metabolite Profiling and Characterization of LW6, a Novel HIF-1α Inhibitor, as an Antitumor Drug Candidate in Mice” (Molecules, 2021).
Where “and” joins values, the source holds several entries; their conditions need not be identical. Identical values can stand only once.

Test: Metabolite profiling and semi-quantitation (peak area-time AUC) of LW6 and its metabolites in mouse plasma after a single i.v. or oral dose of LW6
Format: in vivo, male ICR mice
Conditions: for Relative % of Parent AUC0→t (i.v.): AUC0→t relative to AUC0→t of parent after i.v. administration; for Relative % of Total Metabolite AUC0→t: relative to sum of AUC0→t of all detected metabolites; for Relative AUC of metabolite versus parent AUC (i.v.): versus AUC0→t of LW6 administered intravenously; for Relative % of Parent AUC0→t (p.o.): AUC0→t relative to AUC0→t of parent after i.v. administration (5 mg/kg); for Average AUC0→t (Peak Intensity, Cps) / Average AUC0→t (Peak inTensity, cps): mouse plasma, n = 3, 0-24 h, LC-MS/MS peak intensity-time curve; for Average AUC0→t (Peak Intensity, Cps): LW6 5 mg/kg i.v.; for Average AUC0→t (Peak inTensity, cps): LW6 5 mg/kg p.o.; for Detection of metabolite in mouse plasma: LW6 5 mg/kg i.v. or p.o., pMRM-IDA-EPI, S/N > 3
Procedure: To determine the in vivo metabolism of LW6, male ICR mice were administered a single intravenous (i.v., 5 mg/kg) or oral dose (p.o., 5 mg/kg) of LW6. Serial blood samples (Section 4.2) were collected and metabolite identification was performed using a pMRM-IDA-EPI scan method in negative ion mode on a QTRAP.
Animal experiments were approved by the Institutional Animal Care and Use Committee of the Korea Research Institute of Bioscience and Biotechnology (Chungbuk, Korea; KRIBB-AEC-15005, 9 January 2015) and performed in compliance with the National Institutes of Health Guidelines for the care and use of laboratory animals and Korean national laws for ethical conduct in the care and use of animals and the rules of Good Laboratory Practice. Six specific pathogen-free (SPF) male ICR mice (8 weeks, 31.5–40.1 g) were purchased from Koatech Co. (Pyeongtaek, Kyonggi, Korea) and maintained in an SPF environment at 22 ± 2 °C with a 12 h light/dark cycle and relative humidity of 50 ± 10%. Food (Teklad Global rodent diet 2018S, ENVIGO, Indianapolis, IN, USA) and water were provided ad libitum, unless noted otherwise. Animals were acclimated to the testing facility for 1 week before being used in the study. The animal group for oral dosing was fasted overnight before the study and fed again 4 h after dosing. Mice were administered a single dose of the test substance intravenously via tail vein injection (n = 3, 5 mg/kg) or orally by disposable syringe with an oral zonde (n = 3, 5 mg/kg). Dosing solutions were prepared in dimethylacetamide/Cremophor EL/20% v/v (2-hydroxypropyl)-β-cyclodextrin in de-ionized water (1/1/3 v/v/v; i.v. or p.o. for LW6) and administered at a dose volume of 5 mL/kg for both i.v. and p.o. Peng et al. method was used for serial blood sampling in mice. Briefly, blood samples (~50 µL each) were collected via the saphenous vein of free alive mice at the time points including 0, 0.25, 0.5, 0.75, 1, 2, 4, 6, 8, and 24 h after oral administration or 0, 0.083, 0.167, 0.25, 0.5, 1, 2, 4, 6, 8, and 24 h after intravenous administration. These samples were collected into Microvette® capillary tubes at predetermined time points. The blood samples were centrifuged under refrigeration at 12,000× g for 3 min and then stored frozen at −20 °C until analysis.
Plasma samples were prepared for analysis by the protein precipitation method. A simple protein precipitation is to remove proteins in plasma samples with organic solvents. Briefly, 15 µL of each plasma sample was transferred to a PCR tube (Axygen, Union City, CA, USA). Four volumes of acetonitrile containing the analytical internal standard, 4-methylumbelliferone, were added, and the resulting mixture was vortexed for 10 min on a multi-tube vortexer (VWR International, Radnor, PA, USA). The samples were sonicated for 30 min at room temperature. The tubes were centrifuged at 12,000× g for 10 min, and the supernatant was analyzed for the test substance. Sample analysis was performed with a 3200 Q TRAP LC/MS/MS system (Applied Biosystems, Foster City, CA, USA) in negative MRM mode. The analytical methods are described in the following sections.
The LC-MS/MS system consisted of an Agilent 1100 series HPLC system (Agilent Technologies, Santa Clara, CA, USA) equipped with an API 3200 QTRAP hybrid triple quadrupole-linear ion trap mass spectrometer with a Turbo V^TM ion spray. All samples were analyzed on an Acquisition mode and data were processed using Analyst® software (version 1.4.2, Applied Biosystems, Foster City, CA, USA). The sample injection volume was 10 µL, and separation was performed using an Atlantis dC18 column (50 × 2.1 mm i.d., 3 µm, Waters, Milford, MA, USA) with a SecurityGuard^TM C18 guard column (2.0 × 4.0 mm i.d., Phenomenex, Torrance, CA, USA) maintained at room temperature. […]

Structure (SMILES) | Relative % of Parent AUC0→t (i.v.) (after LW6 5 mg/kg i.v.) | Relative % of Total Metabolite AUC0→t (after LW6 5 mg/kg i.v.) | Relative % of Total Metabolite AUC0→t (after LW6 5 mg/kg i.v., listed as APA (M7)) | Relative AUC of metabolite versus parent AUC (i.v.) (after LW6 5 mg/kg i.v.) | Relative % of Parent AUC0→t (p.o.) (after LW6 5 mg/kg p.o.) | Relative % of Total Metabolite AUC0→t (after LW6 5 mg/kg p.o.) | Relative % of Total Metabolite AUC0→t (after LW6 5 mg/kg p.o., listed as APA (M7)) | Relative AUC of metabolite versus parent AUC (i.v.) (after LW6 5 mg/kg p.o.) | Average AUC0→t (Peak Intensity, Cps) | Average AUC0→t (Peak inTensity, cps) | Relative % of Parent AUC0→t (i.v.) (after LW6 5 mg/kg i.v., 5 mg/kg) | Relative % of Parent AUC0→t (p.o.) (after LW6 5 mg/kg p.o., 5 mg/kg) | Detection of metabolite in mouse plasma
O=C(O)COc1ccc(C23CC4CC(CC(C4)C2)C3)cc1 [APA, 2-(4-((3r,5r,7r)-adamantan-1-yl)phenoxy)acetic acid] | 1877.92% | 92.1% and 92% | 92.09% | approximately 19 fold | 1686.37% | 93.3% and 93% | 93.32% | ~17 fold | 19,697,150 cps | 17,688,080 cps | – | – | –
COC(=O)c1ccc(O)c(NC(=O)COc2ccc(C34CC5CC(CC(C5)C3)C4)cc2)c1 [LW6] | – | – | – | – | – | – | – | – | 1,048,883 cps | 28,735 cps | 100% | 2.7% and 2.74% | –
O=C(COc1ccc(C23CC4CC(CC(C4)C2)C3)cc1)Nc1cc(C(=O)O)ccc1O [M9] | 0.73% | 0.04% | – | – | – | – | – | – | 7672 cps | – | – | – | only detected in plasma samples obtained from intravenous dosing
Oc1ccc(C23CC4CC(CC(C4)C2)C3)cc1 [M12] | 2.99% | 0.15% | – | – | – | – | – | – | 31,345 cps | – | – | – | only detected in plasma samples obtained from intravenous dosing
